In patent US4849428A, “Cyclic anti-inflammatory derivatives of di-tert-butylphenol compounds, compositions and use” (The Procter & Gamble Company, priority 1987, dated 1989):

Tests used:
[1] = test system: Carrageenan Rat Paw Edema; assay: Carrageenan Rat Paw Edema Test; assay type: in vivo, Male Sprague-Dawley rats; details: for Percent Inhibition at 100 mg/kg dose p.o.: 100 mg/kg p.o. 1 h before carrageenan, paw volume 4 h after carrageenan, relative to control; for ED35: oral, by regression analysis, read-out: ID35
Description: Carrageenan Rat Paw Edema Test
Male Sprague-Dawley rats (Charles River Laboratories) are weighed and food fasted overnight. The animals are then divided into four to six groups of six animals each according to body weights (average about 145 g) so that each group has about the same average body weight (within 10 g).
The following morning animals are dosed with the test compound and then placed in individual cages. For oral dosing, the drug is suspended in 0.5% methyl cellulose with 2% Tween 80, and delivered via stomach tube in a 5 ml volume.
Paw volumes (0 time) are determined on both hind paws with a mercury displacement device equipped with a transducer and digitizer. One hour after dosing the test compound, the animals are placed in a plastic restrainer and 50 ul of a 1% (w/w) carrageenan solution in 0.9% saline is injected into the ventral surface of the left rear paw. Four hours after the carrageenan injection, the paw volumes are again determined.
The results are expressed as percent inhibition of the mean paw volume of the test group relative to the control group. Statistical differences are determined by one way analysis of variance. ID35 values are determined by regression analysis.

[2] = test system: rheumatoid arthritis or osteoarthritis; assay: Oral capsules in patients with rheumatoid arthritis or osteoarthritis; assay type: in vivo, patient; details: capsule, orally once a day
Description: Capsules are prepared by conventional methods, comprised as follows: […]

rheumatoid arthritis = assay: Oral tablets in patients with rheumatoid arthritis; assay type: in vivo, patient; details: tablet, orally two times daily
Description: (§1) Tablets are prepared by conventional methods, such as mixing and direct compaction, formulated as follows: […]

osteoarthritis = assay: Oral tablets in patients with osteoarthritis; assay type: in vivo, patient; details: tablet, twice daily
Description: as §1

SMILES | Percent Inhibition at 100 mg/kg dose p.o. [1] | ED35 [1] | reduction of symptomology in rheumatoid arthritis or osteoarthritis patient [2] | reduction of inflammation in rheumatoid arthritis patient (rheumatoid arthritis) | benefit in osteoarthritis patient (osteoarthritis)
C#CCCCC(=O)c1cc(C(C)(C)C)c2c(c1)C(C)(C)C(O)O2 (stereo not drawn) [Compound 13C] | 53.2% | 12.9 mg/kg | – | – | –
C#CC(O)CCC(=O)c1cc(C(C)(C)C)c2c(c1)C(C)(C)CO2 (stereo not drawn) [Compound 8D] | 60.8% | 1.6 mg/kg | – | – | –
C#CCCCC(=O)c1cc(C(C)(C)C)c2c(c1)C(C)(C)CO2 [Compound 8C] | 48.8% | 2.4 mg/kg | substantially reduces the symptomology | significantly reduces the inflammation | significant benefit
